Holding throughout (assay type): cell-based
Assay [1] relates to mouse fetal hepatocytes. Kind of assay: Immunohistochemistry using anti-insulin antibody. As to conditions: medium supplemented with nicotinamide; FIG. 3 vs FIG. 2. The text has this: Fetal hepatocytes were fixed with 4% paraformaldehyde in 0.1 M phosphate buffer and stained by direct immunoperoxidase method using a guinea pig anti-pig insulin antibody (Zymed Laboratories, South San Francisco, Calif.) and a peroxidase-labeled pig anti-guinea pig IgG (DAKO Japan, Kyoto).
(§1) Both insulin 1 and 2 genes were clearly expressed under the culture conditions used, as determined by RT-PCR analysis. It was assumed that some of the supplements (nicotinamide, EGF, insulin or dexamethasone) to the culture medium were responsible for the expression of the insulin genes in the hepatocytes. Each of these supplements was separately added to the DMEM/F12 containing 10% FBS, and effects on insulin expression was evaluated in thus formed different media. When cultured in a medium not supplemented with nicotinamide (containing just 0.0165 mmol/L of nicotinamide), the mouse fetal hepatocytes either din not express the insulin 1 or 2 gene at all, or did expressed them but only very poorly (FIG. 1). […] As a negative control, mouse embryonic fibroblasts (MEF) were prepared from fetal limbs (ED13.5), and cultured under the same conditions. […] Immunohistochemistry using anti-insulin antibody was employed to confirm that a high-concentration of nicotinamide was requited for the differentiation of mouse fetal hepatocytes into insulin-producing cells.

Assay [2] has as its system mouse fetal hepatocytes. The assay is described as follows: RT-PCR analysis of insulin 1 and 2 gene expression in cultured fetal hepatocytes with medium supplements. As to conditions: for induction of insulin 1 and 2 gene expression: supplement separately added to DMEM/F12 containing 10% FBS. Here is the method:
For preparing fetal hepatocytes, the liver of fetal ICR mice (embryonic day 13.5) was excised and treated with 0.1% trypsin-phosphate-buffered saline for 5 min at 37° C. A culture medium solution then was added, and the mixture was filtered through a nylon membrane (#200). The cell suspension thus obtained was centrifuged at 50 g for 5 min. The cell pellet was suspended in a medium consisting of 1:1 DMEM/F12 (Sigma D6421) supplemented with 10% fetal bovine serum, L-glutamine (2 mmol/L), β-mercaptoethanol (β-ME), (50 μmol/L), penicillin (100,000 U/L) and streptomycin (100 mg/L). The formula of the 1:1 DMEM/F12 (Dulbecco's Modified Eagle's Medium/Ham's Nutrient Mixture F-12: Sigma D6421) was as follows (in g/L): Ca2Cl2/2H2O (0.1545), CuSO4/5H2O (0.0000013), Fe(NO3)3/9H2O (0.00005). […]
Both insulin 1 and 2 genes were clearly expressed under the culture conditions used, as determined by RT-PCR analysis. […] Each of these supplements was separately added to the DMEM/F12 containing 10% FBS, and effects on insulin expression was evaluated in thus formed different media. […]

The test system of assay [3] is mouse embryonic fibroblasts (MEF). Kind of assay: RT-PCR analysis of insulin 1 and 2 gene expression in mouse embryonic fibroblasts (negative control cells). Particulars: MEF from fetal limbs (ED13.5), medium supplemented with nicotinamide; FIG. 1. The method, then: as §1

On to `NC(=O)c1cccnc1` [nicotinamide], for which the “generation of insulin-positive cells (anti-insulin immunostaining)” value in the assay on mouse fetal hepatocytes [1] is “led to generation of insulin-positive cells”. Moreover, in the assay with mouse fetal hepatocytes [2] (medium supplemented with 10 mmol/L of nicotinamide, DMEM/F12 containing 10% FBS, FIG. 1), the “expression of the insulin 1 and 2 genes” value is on record as “markedly induced”. Moreover, in assay [3], the “expression of the insulin 1 and 2 genes in MEF” value is reported as “expressed”. For the compound “EGF: epidermal growth factor (EGF), culture medium supplement (NSDSECPLSHDGYCLHDGVCMYIEALDKYACNCVVGYIGERCQYRDLKWWELR; Epidermal growth factor; UniProt P01133 971-1023, looked up)”, the “induction of insulin 1 and 2 gene expression” value in the assay with mouse fetal hepatocytes [2] is “either had no effect or had only a marginal effect”. On the same count and under the same terms, the entry for “insulin: insulin, culture medium supplement (172 nmol/L)” is “either had no effect or had only a marginal effect”.

The record behind these values is US20030219894A1, “Induction of insulin-producing cells” (JCR Pharmaceuticals Co., Ltd., priority 2002, published 2003).
